Results as given in patent US20250114345A1, “COMPOUNDS AND COMPOSITIONS AS CBP/P300 DEGRADERS AND USES THEREOF” (Oncopia Therapeutics, Inc. d/b/a/ SK Life Science Labs, priority 2023, published 2025).

Molecular target: T1, p300 (Homo sapiens, UniProt Q09472)
T1 construct: host or cells: A549 P300 HiBit cells
Experiment: P300 degradation, HiBit technology in A549 P300 HiBit cells (2 h)
Format: cell-based
Conditions: 2 hrs post treatment; for Dmax: A549, A549 P300 HiBit cells; for DC50: A549 P300 HiBit cells
Summary of the method: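 Cells: A549 HiBiT-tagged lines, 0.2×10^4/well, F-12K + 10% HI-FBS, equilibrated overnight. Tx: serial dilution of cpd (10 mM DMSO stock). Readout: HiBiT lytic reagent, 10 min RT shaking, luminescence → potency, Dmax.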

T1 sequence (Q09472 whole entry): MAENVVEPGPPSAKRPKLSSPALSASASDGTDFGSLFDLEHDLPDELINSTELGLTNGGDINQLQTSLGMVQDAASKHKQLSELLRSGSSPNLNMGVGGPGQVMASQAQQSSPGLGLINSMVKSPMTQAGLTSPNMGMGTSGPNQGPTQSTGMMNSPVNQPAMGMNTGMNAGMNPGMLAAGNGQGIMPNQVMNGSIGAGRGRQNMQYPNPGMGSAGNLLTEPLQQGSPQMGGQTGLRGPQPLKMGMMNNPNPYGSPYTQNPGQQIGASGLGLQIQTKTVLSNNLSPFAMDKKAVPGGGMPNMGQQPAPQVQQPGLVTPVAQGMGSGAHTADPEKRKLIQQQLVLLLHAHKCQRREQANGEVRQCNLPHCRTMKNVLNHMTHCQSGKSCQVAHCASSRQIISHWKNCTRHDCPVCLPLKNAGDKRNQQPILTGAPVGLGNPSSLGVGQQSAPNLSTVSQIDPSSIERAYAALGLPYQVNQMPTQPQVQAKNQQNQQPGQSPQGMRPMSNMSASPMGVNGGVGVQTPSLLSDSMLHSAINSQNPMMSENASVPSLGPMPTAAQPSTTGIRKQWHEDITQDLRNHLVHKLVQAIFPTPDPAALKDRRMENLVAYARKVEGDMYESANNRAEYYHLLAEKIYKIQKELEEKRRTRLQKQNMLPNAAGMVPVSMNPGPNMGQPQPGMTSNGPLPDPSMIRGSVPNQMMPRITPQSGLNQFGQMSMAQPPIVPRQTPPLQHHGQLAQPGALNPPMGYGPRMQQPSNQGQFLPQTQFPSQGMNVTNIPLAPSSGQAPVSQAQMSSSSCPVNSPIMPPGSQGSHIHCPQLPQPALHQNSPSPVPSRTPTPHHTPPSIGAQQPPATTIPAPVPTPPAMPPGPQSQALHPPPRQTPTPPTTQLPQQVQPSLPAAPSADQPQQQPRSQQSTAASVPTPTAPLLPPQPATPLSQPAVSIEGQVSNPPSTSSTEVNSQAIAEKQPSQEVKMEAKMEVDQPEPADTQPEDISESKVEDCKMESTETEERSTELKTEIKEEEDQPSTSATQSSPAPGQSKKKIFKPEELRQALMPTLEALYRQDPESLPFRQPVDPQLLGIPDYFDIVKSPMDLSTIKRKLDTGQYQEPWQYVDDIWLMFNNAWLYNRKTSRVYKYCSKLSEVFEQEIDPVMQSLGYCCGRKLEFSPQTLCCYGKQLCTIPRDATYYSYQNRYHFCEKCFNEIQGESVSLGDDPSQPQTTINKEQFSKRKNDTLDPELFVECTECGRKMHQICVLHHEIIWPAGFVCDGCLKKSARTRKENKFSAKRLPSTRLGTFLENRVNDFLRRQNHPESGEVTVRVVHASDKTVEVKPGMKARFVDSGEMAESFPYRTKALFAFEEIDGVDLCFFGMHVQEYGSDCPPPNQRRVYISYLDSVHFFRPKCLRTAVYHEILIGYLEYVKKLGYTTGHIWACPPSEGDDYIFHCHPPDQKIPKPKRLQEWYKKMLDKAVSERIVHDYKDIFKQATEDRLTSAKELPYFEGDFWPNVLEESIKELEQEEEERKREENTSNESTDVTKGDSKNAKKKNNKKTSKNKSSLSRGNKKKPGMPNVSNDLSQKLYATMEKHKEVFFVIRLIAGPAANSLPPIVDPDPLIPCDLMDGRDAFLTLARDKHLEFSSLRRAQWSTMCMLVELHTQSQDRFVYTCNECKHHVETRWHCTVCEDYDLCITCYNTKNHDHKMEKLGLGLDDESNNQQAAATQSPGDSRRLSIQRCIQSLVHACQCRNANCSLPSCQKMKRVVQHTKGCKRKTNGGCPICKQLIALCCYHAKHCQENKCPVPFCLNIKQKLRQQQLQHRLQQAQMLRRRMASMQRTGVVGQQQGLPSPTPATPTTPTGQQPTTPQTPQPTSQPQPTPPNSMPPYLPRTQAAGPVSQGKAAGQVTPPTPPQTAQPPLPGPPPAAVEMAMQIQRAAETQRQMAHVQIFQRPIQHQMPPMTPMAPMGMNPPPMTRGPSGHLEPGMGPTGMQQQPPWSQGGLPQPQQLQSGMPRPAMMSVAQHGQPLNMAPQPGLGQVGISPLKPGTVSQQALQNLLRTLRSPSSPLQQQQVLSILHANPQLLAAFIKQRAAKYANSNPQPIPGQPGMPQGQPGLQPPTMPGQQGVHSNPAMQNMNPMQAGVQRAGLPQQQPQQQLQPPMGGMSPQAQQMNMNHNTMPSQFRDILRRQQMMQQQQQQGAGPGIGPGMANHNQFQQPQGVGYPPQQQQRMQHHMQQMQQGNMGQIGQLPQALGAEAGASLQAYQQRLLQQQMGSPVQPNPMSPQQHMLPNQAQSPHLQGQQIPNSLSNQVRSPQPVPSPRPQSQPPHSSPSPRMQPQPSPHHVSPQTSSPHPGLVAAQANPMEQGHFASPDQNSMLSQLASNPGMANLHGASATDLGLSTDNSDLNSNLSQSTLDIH

Row | Dmax [%] | DC50 [nM] | SMILES
1 | > 80 | 1 to 9.9 | Cc1cc(-c2cc3c(cc2C(F)F)N(c2ccc4c(c2)n(C)c(=O)n4C)CCC3)cnc1C(=O)NCC#Cc1ccc2occ(C3CCC(=O)NC3=O)c2c1 (centres unmarked) [Example A94, 5-(7-(difluoromethyl)-1-(1,3-dimethyl-2-oxo-2,3-dihydro-1H-benzo[d]imidazol-5-yl)-1,2,3,4-tetrahydro-quinolin-6-yl)-N-(3-(3-(2,6-dioxopiperidin-3-yl)benzofuran-5-yl)prop-2-yn-1-yl)-3-methylpicolinamide]
2 | > 80 | 1 to 9.9 | Cc1cc(-c2ncc(N(C)c3cc(C(C)C)c4c(c3)n(C)c(=O)n4C)cc2C#N)cnc1C(=O)NCC#Cc1ccc2occ(C3CCC(=O)NC3=O)c2c1 (centres unmarked) [Example A98, 3-cyano-N-(3-(3-(2,6-dioxopiperidin-3-yl)benzofuran-5-yl)prop-2-yn-1-yl)-5-((7-isopropyl-1,3-dimethyl-2-oxo-2,3-dihydro-1H-benzo[d]imidazol-5-yl)(methyl)amino)-5′-methyl-[2,3′-bipyridine]-6′-carboxamide]
3 | < 20 | > 1000 | Cn1c(=O)oc2ccc(-c3cccc4cc(-c5ccc(C(=O)NCC#Cc6ccc7occ(C8CCC(=O)NC8=O)c7c6)nc5)ncc34)cc21 (centres unmarked) [Example A101, N-(3-(3-(2,6-dioxo-piperidin-3-yl)benzofuran-5-yl)prop-2-yn-1-yl)-5-(8-(3-methyl-2-oxo-2,3-dihydrobenzo[d]oxazol-5-yl)isoquinolin-3-yl)picolinamide]
4 | 60 to 79 | 1 to 9.9 | Cc1cc(-c2ncc(N(C)c3ccc4c(c3)n(C)c(=O)n4C)cn2)cnc1C(=O)NCC#Cc1ccc2occ(C3CCC(=O)NC3=O)c2c1 (centres unmarked) [Example A103, 5-(5-((1,3-dimethyl-2-oxo-2,3-dihydro-1H-benzo[d]imidazol-5-yl)(methyl)amino)pyrimidin-2-yl)-N-(3-(3-(2,6-dioxopiperidin-3-yl)benzofuran-5-yl)prop-2-yn-1-yl)-3-methylpicolinamide]
5 | < 20 | > 1000 | CN1C(=O)Cc2cc(-c3cccc4cc(-c5ccc(C(=O)NCC#Cc6ccc7occ(C8CCC(=O)NC8=O)c7c6)nc5)ncc34)ccc21 (centres unmarked) [Example A104, N-(3-(3-(2,6-dioxo-piperidin-3-yl)benzofuran-5-yl)prop-2-yn-1-yl)-5-(8-(1-methyl-2-oxoindolin-5-yl)isoquinolin-3-yl)picolinamide]
6 | < 20 | > 1000 | CC(C#Cc1ccc2occ(C3CCC(=O)NC3=O)c2c1)NC(=O)c1ccc(-c2ncc(N(C)c3cc(C(C)C)c4c(c3)n(C)c(=O)n4C)cn2)cn1 (centres unmarked) [Example A105, N-(4-(3-(2,6-dioxo-piperidin-3-yl)benzofuran-5-yl)but-3-yn-2-yl)-5-(5-((7-isopropyl-1,3-dimethyl-2-oxo-2,3-dihydro-1H-benzo [d]imidazol-5-yl)(methyl)amino)pyrimidin-2-yl)picolinamide]
7 | > 80 | 1 to 9.9 | CC(C)c1cc(N(C)c2cnc(-c3ccc(C(=O)NCC#Cc4ccc5occ(C6CCC(=O)NC6=O)c5c4)nc3)nc2)cc2c1n(C)c(=O)n2C (centres unmarked) [Example A106, N-(3-(3-(2,6-dioxo-piperidin-3-yl)benzofuran-5-yl)prop-2-yn-1-yl)-5-(5-((7-isopropyl-1,3-dimethyl-2-oxo-2,3-dihydro-1H-benzo [d]imidazol-5-yl)(methyl)amino)pyrimidin-2-yl)picolinamide]
8 | > 80 | < 1 | Cc1cc(-c2cn(C)c(=O)c3cc(-c4ccc(C(=O)NCC#Cc5ccc6occ(C7CCC(=O)NC7=O)c6c5)nc4)ncc23)cc2c1n(C)c(=O)n2C (centres unmarked) [Example A107, N-(3-(3-(2,6-dioxo-piperidin-3-yl)benzofuran-5-yl)prop-2-yn-1-yl)-5-(6-methyl-5-oxo-8-(1,3,7-trimethyl-2-oxo-2,3-dihydro-1H-benzo[d]imidazol-5-yl)-5,6-dihydro-2,6-naphthyridin-3-yl)picolinamide]
9 | > 80 | 1 to 9.9 | CC(C)c1cc(N2CCOc3cc(-c4ccc(C(=O)NCC#Cc5ccc6occ(C7CCC(=O)NC7=O)c6c5)nc4)c(F)cc32)cc2c1n(C)c(=O)n2C (centres unmarked) [Example A110, N-(3-(3-(2,6-dioxo-piperidin-3-yl)benzofuran-5-yl)prop-2-yn-1-yl)-5-(6-fluoro-4-(7-isopropyl-1,3-dimethyl-2-oxo-2,3-dihydro-1H-benzo[d]imidazol-5-yl)-3,4-dihydro-2H-benzo[b][1,4]oxazin-7-yl)picolinamide]
10 | > 80 | 1 to 9.9 | Cc1cc(-c2ncc(N(C)c3cc(C4CCN(C)CC4)c4c(c3)n(C)c(=O)n4C)cn2)cnc1C(=O)NCC#Cc1ccc2occ(C3CCC(=O)NC3=O)c2c1 (centres unmarked) [Example A112, 5-(5-((1,3-dimethyl-7-(1-methylpiperidin-4-yl)-2-oxo-2,3-dihydro-1H-benzo [d]imidazol-5-yl)(methyl)amino)pyrimidin-2-yl)-N-(3-(3-(2,6-dioxopiperidin-3-yl)benzofuran-5-yl)prop-2-yn-1-yl)-3-methylpicolinamide]
11 | > 80 | 10 to 99 | CC(C)c1cc(N2CCOc3cc(-c4ccc(C(=O)NCC#Cc5ccc6occ(C7CCC(=O)NC7=O)c6c5)nc4)c(Cl)cc32)cc2c1n(C)c(=O)n2C (centres unmarked) [Example A113, 5-(6-chloro-4-(7-isopropyl-1,3-dimethyl-2-oxo-2,3-dihydro-1H-benzo[d]imidazol-5-yl)-3,4-dihydro-2H-benzo[b][1,4]oxazin-7-yl)-N-(3-(3-(2,6-dioxopiperidin-3-yl)benzofuran-5-yl)prop-2-yn-1-yl)picolinamide]
12 | < 20 | > 1000 | Cc1cc(-c2ncc(N(C)c3cc(C4CCOCC4)c4oc(=O)n(C)c4c3)cn2)cnc1C(=O)NCC#Cc1ccc2occ(C3CCC(=O)NC3=O)c2c1 (centres unmarked) [Example A114, N-(3-(3-(2,6-dioxo-piperidin-3-yl)benzofuran-5-yl)prop-2-yn-1-yl)-3-methyl-5-(5-(methyl (3-methyl-2-oxo-7-(tetrahydro-2H-pyran-4-yl)-2,3-dihydrobenzo[d]oxazol-5-yl)amino)pyrimidin-2-yl)picolinamide]
13 | > 80 | 1 to 9.9 | Cc1cc(-c2ncc(N(C)c3cc(C(C)C)c4c(c3)n(C)c(=O)n4C)cc2Cl)cnc1C(=O)NCC#Cc1ccc2occ(C3CCC(=O)NC3=O)c2c1 (centres unmarked) [Example A116, 3-chloro-N-(3-(3-(2,6-dioxopiperidin-3-yl)benzofuran-5-yl)prop-2-yn-1-yl)-5-((7-isopropyl-1,3-dimethyl-2-oxo-2,3-dihydro-1H-benzo [d]imidazol-5-yl)(methyl)amino)-5′-methyl-[2,3′-bipyridine]-6′-carboxamide]
14 | > 80 | 1 to 9.9 | CC(C)c1cc(N2CCCc3cc(-c4ccc(C(=O)NCC#Cc5ccc6occ(C7CCC(=O)NC7=O)c6c5)nc4)c(F)cc32)cc2c1n(C)c(=O)n2C (centres unmarked) [Example A117, N-(3-(3-(2,6-dioxo-piperidin-3-yl)benzofuran-5-yl)prop-2-yn-1-yl)-5-(7-fluoro-1-(7-isopropyl-1,3-dimethyl-2-oxo-2,3-dihydro-1H-benzo [d]imidazol-5-yl)-1,2,3,4-tetrahydro-quinolin-6-yl)picolinamide]
15 | < 20 | > 1000 | Cn1c(=O)oc2cc(-c3cccc4cc(-c5ccc(C(=O)NCC#Cc6ccc7occ(C8CCC(=O)NC8=O)c7c6)nc5)ncc34)ccc21 (centres unmarked) [Example A120, N-(3-(3-(2,6-dioxo-piperidin-3-yl)benzofuran-5-yl)prop-2-yn-1-yl)-5-(8-(3-methyl-2-oxo-2,3-dihydrobenzo[d]oxazol-6-yl)isoquinolin-3-yl)picolinamide]
16 | 60 to 79 | 1 to 9.9 | Cn1c(=O)n(C)c2c(C3CCS(=O)(=O)CC3)nc(-c3cccc4cc(-c5ccc(C(=O)NCC#Cc6ccc7occ(C8CCC(=O)NC8=O)c7c6)nc5)ncc34)cc21 (centres unmarked) [Example A123, 5-(8-(4-(1,1-dioxido-tetrahydro-2H-thiopyran-4-yl)-1,3-dimethyl-2-oxo-2,3-dihydro-1H-imidazo [4,5-c]pyridin-6-yl)isoquinolin-3-yl)-N-(3-(3-(2,6-dioxopiperidin-3-yl)benzofuran-5-yl)prop-2-yn-1-yl)picolinamide]
17 | 40 to 59 | 10 to 99 | Cc1cc(-c2ccc(Nc3cc(C(C)C)c4c(c3)n(C)c(=O)n4C)cn2)cnc1C(=O)NCC#Cc1ccc2occ(C3CCC(=O)NC3=O)c2c1 (centres unmarked) [Example A125, N-(3-(3-(2,6-dioxo-piperidin-3-yl)benzofuran-5-yl)prop-2-yn-1-yl)-5-((7-isopropyl-1,3-dimethyl-2-oxo-2,3-dihydro-1H-benzo [d]imidazol-5-yl)amino)-5′-methyl-[2,3′-bipyridine]-6′-carboxamide]
18 | 20 to 39 | 1 to 9.9 | Cc1cc(-c2ncc3c(n2)OCCN3c2cnc3c(c2)n(C)c(=O)n3C)cnc1C(=O)NCC#Cc1ccc2occ(C3CCC(=O)NC3=O)c2c1 (centres unmarked) [Example A126, 5-(5-(1,3-dimethyl-2-oxo-2,3-dihydro-1H-imidazo[4,5-b]pyridin-6-yl)-6,7-dihydro-5H-pyrimido[4,5-b] [1,4]oxazin-2-yl)-N-(3-(3-(2,6-dioxo-piperidin-3-yl)benzofuran-5-yl)prop-2-yn-1-yl)-3-methylpicolinamide]

Row | SMILES | Dmax [%] | DC50 [nM]
19 | Cn1c(=O)n(C)c2c(N3CC[Si](C)(C)CC3)nc(-c3cccc4cc(-c5ccc(C(=O)NCC#Cc6ccc7occ(C8CCC(=O)NC8=O)c7c6)nc5)ncc34)cc21 (centres unmarked) [Example A118, 5-(8-(4-(4,4-dimethyl-1,4-azasilinan-1-yl)-1,3-dimethyl-2-oxo-2,3-dihydro-1H-imidazo[4,5-c]pyridin-6-yl)isoquinolin-3-yl)-N-(3-(3-(2,6-dioxopiperidin-3-yl)benzofuran-5-yl)prop-2-yn-1-yl)picolinamide] | 60 to 79 | 10 to 99
